According to patent US20240122848A1, “APPETITE SUPPRESSANT” (priority 2017, published 2024):
Counter-ions that a name gives are not always drawn.

Key:
[1] = cited from earlier work; for Average weight loss/one year: vs. 3% placebo
[2] = Dissolution / solubility observations of ingredients

## CC1(C)O[C@@H]2[C@@H](CO[C@@]3(COS(N)(=O)=O)OC(C)(C)O[C@@H]23)O1 [TOPAMAX, Topiramate]
[1]; in vivo
  efficacy (vs. placebo): Minimal, if any efficacy

## C[C@H]1[C@H](c2ccccc2)OCCN1C [BONTRIL, Phendimetrazine]
[1]
  patients with 5% weight loss/12 weeks: 80 % patients
  patients with 10% weight loss/12 weeks: 50 % patients
  Average weight loss/one year: 10%

## CCN(CC)C(C)C(=O)c1ccccc1 (stereo not shown) [TENUATE, Diethylpropion]
[1]
  patients with 5% weight loss/12 weeks: 80 % patients
  patients with 10% weight loss/12 weeks: 50 % patients
  Average weight loss/one year: 10%

## CCCCCCCCCCC[C@@H](C[C@@H]1OC(=O)[C@H]1CCCCCC)OC(=O)[C@H](CC(C)C)NC=O [XENICAL, Orlistat]
[1]; 6 months
  weight loss (vs. placebo)/6 months: 5%

## CN[C@H]1CC[C@@H](c2ccc(Cl)c(Cl)c2)c2ccccc21 [ZOLOFT, Sertraline]
[1]; in vivo
  evidence of weight loss: No evidence of weight loss

## C[C@H]1CNCCc2ccc(Cl)cc21 [BELVIQ, Lorcaserin]
[1]; per year
  weight loss/year vs. placebo: 3-5%

## C[C@@H](Cc1ccccc1)N(C)Cc1ccccc1 [DIDREX, Benzphetamine]
[1]
  patients with 5% weight loss/12 weeks: 80 % patients
  patients with 10% weight loss/12 weeks: 50 % patients
  Average weight loss/one year: 10%

## Glycerol ester of hydrogenated rosin [GEHR]
[2]
  solubility in aqueous solutions: poorly soluble

## CN1CCCC(n2nc(Cc3ccc(Cl)cc3)c3ccccc3c2=O)CC1 (stereo not shown) [Azelastine hydrochloride, Azelastine Hydrochloride]
[2]; added as second ingredient after Purified Water
  time to dissolve in purified water with stirring: approximately 5 minutes

## C[C@H]1[C@H](c2ccccc2)OCCN1C.O=C(O)C(O)C(O)C(=O)O [ADIPOST]
[1]
  patients with 5% weight loss/12 weeks: 80 % patients
  patients with 10% weight loss/12 weeks: 50 % patients
  Average weight loss/one year: 10%

## CNCCC(Oc1ccc(C(F)(F)F)cc1)c1ccccc1 (stereo not shown) [PROZAC, Fluoxetine]
[1]; in vivo
  evidence of weight loss: No evidence of weight loss

## CC(C)(N)Cc1ccccc1 [ADIPEX, Phentermine]
[1]
  patients with 5% weight loss/12 weeks: 80 % patients
  patients with 10% weight loss/12 weeks: 50 % patients
  Average weight loss/one year: 10%
